From PubChem BioAssay AID1259411 (Chemical Carcinogenesis Research Information System (CCRIS), 2018)
The source made the active and inactive calls. No rule for the calls is given here.

Test system: rodent carcinogenicity bioassays, tumor incidence
Assay: CCRIS carcinogenicity studies
In short: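 Archive of carcinogenicity, mutagenicity, tumor promotion and tumor inhibition results drawn from journals, NCI reports and other sources, expert-reviewed; covers 1985-2011 and is no longer updated.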

## CCC(C)OC(=O)N1CCCCC1CCO (stereo not given)
Species: MOUSE, Strain/Sex: CD-1/FEMALE, Route: DERMAL, Dose: 0, 50, 100, 200 MG/KG BW FOR 78 WK (STUDY DURATION: 78 WK), Dose: 0, 50, 100, 200 MG/KG BW FOR 78 WK (STUDY DURATION: 78 WK)
  carcinogen call: inactive; negative
Species: MOUSE, Strain/Sex: CD-1/MALE, Route: DERMAL, Dose: 0, 50, 100, 200 MG/KG BW FOR 78 WK (STUDY DURATION: 78 WK), Dose: 0, 50, 100, 200 MG/KG BW FOR 78 WK (STUDY DURATION: 78 WK)
  carcinogen call: inactive; negative
Species: RAT, Strain/Sex: SPRAGUE-DAWLEY/FEMALE, Route: DERMAL, Dose: 0, 50, 100, 200 MG/KG BW FOR 104 WK (STUDY DURATION: 104 WK), Dose: 0, 50, 100, 200 MG/KG BW FOR 104 WK (STUDY DURATION: 104 WK)
  carcinogen call: inactive; negative
Species: RAT, Strain/Sex: SPRAGUE-DAWLEY/MALE, Route: DERMAL, Dose: 0, 50, 100, 200 MG/KG BW FOR 104 WK (STUDY DURATION: 104 WK), Dose: 0, 50, 100, 200 MG/KG BW FOR 104 WK (STUDY DURATION: 104 WK)
  carcinogen call: inactive; negative

## S=C(NC1CCCCC1)NC1CCCCC1
Species: MOUSE, Strain/Sex: B6C3F1/FEMALE, Route: ORAL, Dose: 0, 25000, 50000 PPM IN DIET, Dose: 0, 25000, 50000 PPM IN DIET
  carcinogen call: inactive; negative
Species: MOUSE, Strain/Sex: B6C3F1/MALE, Route: ORAL, Dose: 0, 25000, 50000 PPM IN DIET, Dose: 0, 25000, 50000 PPM IN DIET
  carcinogen call: inactive; negative
Species: RAT, Strain/Sex: F344/FEMALE, Route: ORAL, Dose: 0, 25000, 50000 PPM IN DIET, Dose: 0, 25000, 50000 PPM IN DIET
  carcinogen call: inactive; negative
Species: RAT, Strain/Sex: F344/MALE, Route: ORAL, Dose: 0, 25000, 50000 PPM IN DIET, Dose: 0, 25000, 50000 PPM IN DIET
  carcinogen call: inactive; negative

## Cn1c2ccccc2c2ccccc21
Species: MOUSE, Strain/Sex: CD-1/FEMALE, Route: INTRAPERITONEAL, Dose: 0, 1.75 UMOL/MOUSE (TOTAL DOSE) ADMINISTERED DURING DAYS 1, 8, AND 15 OF LIFE (STUDY DURATION: 52 WK)
  carcinogen call: inactive; negative
Species: MOUSE, Strain/Sex: CD-1/MALE, Route: INTRAPERITONEAL, Dose: 0, 1.75 UMOL/MOUSE (TOTAL DOSE) ADMINISTERED DURING DAYS 1, 8, AND 15 OF LIFE (STUDY DURATION: 52 WK)
  carcinogen call: inactive; negative

## Nc1ccc2c(c1)C(=O)c1ccccc1C2=O
Species: MOUSE, Strain/Sex: B6C3F1/FEMALE, Route: ORAL, Dose: 0, 0.5, 1.0% OF DIET, Dose: 0, 0.5, 1.0% OF DIET, Tumor Site: Type of Lesion: LYMPHATIC SYSTEM: MALIGNANT LYMPHOMA, LIVER: HEPATOCELLULAR CARCINOMA
  carcinogen call: active; positive
Species: MOUSE, Strain/Sex: B6C3F1/MALE, Route: ORAL, Dose: 0, 0.5, 1.0% OF DIET, Dose: 0, 0.5, 1.0% OF DIET, Tumor Site: Type of Lesion: LIVER: HEPATOCELLULAR CARCINOMA, ADENOMA
  carcinogen call: active; positive
Species: RAT, Strain/Sex: F344/MALE, Route: ORAL, Dose: 0, 0.35, 0.69% OF DIET, Dose: 0, 0.35, 0.69% OF DIET, Tumor Site: Type of Lesion: LIVER: HEPATOCELLULAR CARCINOMA, NEOPLASTIC NODULE
  carcinogen call: active; positive

## CN(CCC#N)N=O
Species: RAT, Strain/Sex: F344/FEMALE, Route: SUBCUTANEOUS, Dose: 0, 0.019 MMOL 3/WK FOR 20 WK (STUDY DURATION: 24 WK), Tumor Site: Type of Lesion: ESOPHAGUS: PAPILLOMA, NASAL CAVITY: PAPILLOMA, TONGUE: PAPILLOMA OR CARCINOMA, Tumor Site: Type of Lesion: ESOPHAGUS: PAPILLOMA, NASAL CAVITY: PAPILLOMA, TONGUE: PAPILLOMA OR CARCINOMA
  carcinogen call: active; positive
Species: RAT, Strain/Sex: F344/MALE, FEMALE, Route: SUBCUTANEOUS, Dose: 0, 2.13 MG IN 0.3 ML SALINE 3/WK FOR 20 WK (TOTAL DOSE 127.8 MG) (STUDY DURATION: 24 WK), Tumor Site: Type of Lesion: ESOPHAGUS: SQUAMOUS CELL PAPILLOMA, SQUAMOUS CELL CARCINOMA, TONGUE: PAPILLOMA, CARCINOMA, NASAL CAVITY: PAPILLOMA, ESTH, Tumor Site: Type of Lesion: ESOPHAGUS: SQUAMOUS CELL PAPILLOMA, SQUAMOUS CELL CARCINOMA, TONGUE: PAPILLOMA, CARCINOMA, NASAL CAVITY: PAPILLOMA, ESTH
  carcinogen call: active; positive
Species: RAT, Strain/Sex: F344/MALE,FEMALE, Route: SUBCUTANEOUS, Dose: 2.13 MG 3/WK FOR 20 WK (TOTAL DOSE 129 MG), Tumor Site: Type of Lesion: ESOPHAGUS: PAPILLOMA, CARCINOMA, NASAL CAVITY: PAPILLOMA, TONGUE: PAPILLOMA, CARCINOMA, Tumor Site: Type of Lesion: ESOPHAGUS: PAPILLOMA, CARCINOMA, NASAL CAVITY: PAPILLOMA, TONGUE: PAPILLOMA, CARCINOMA
  carcinogen call: active; positive
Species: RAT, Strain/Sex: F344/MALE, Route: MUCOUS MEMBRANE, Dose: 0, 0.3 ML OF A 15 MMOL WATER SOLUTION 1/D 3 D/WK FOR 1 WK THEN 1/D 5 D/WK FOR WK 2-4 THEN 2/D 5 D/WK FOR WK 5-6 (STUDY D, Tumor Site: Type of Lesion: NASAL CAVITY: CARCINOMA, PAPILLOMA, ADENOMA, LUNG: ADENOCARCINOMA, ADENOMA, LIVER: CARCINOMA, ADENOMA, ESOPHAGUS: PAPILL, Tumor Site: Type of Lesion: NASAL CAVITY: CARCINOMA, PAPILLOMA, ADENOMA, LUNG: ADENOCARCINOMA, ADENOMA, LIVER: CARCINOMA, ADENOMA, ESOPHAGUS: PAPILL
  carcinogen call: active; positive
Species: RAT, Strain/Sex: F344/MALE, Route: SUBCUTANEOUS, Dose: 0, 0.019 MMOL 3/WK FOR 20 WK (STUDY DURATION: 24 WK), Tumor Site: Type of Lesion: ESOPHAGUS: PAPILLOMA, NASAL CAVITY: PAPILLOMA, TONGUE: PAPILLOMA OR CARCINOMA, Tumor Site: Type of Lesion: ESOPHAGUS: PAPILLOMA, NASAL CAVITY: PAPILLOMA, TONGUE: PAPILLOMA OR CARCINOMA
  carcinogen call: active; positive

## C[C@]12CC[C@@H]3C4=C(CC[C@H]3[C@@H]1CCC2=O)C(=O)C(=O)C=C4
Species: RAT, Strain/Sex: STRAIN-CD/FEMALE, Route: INJECTION, Dose: 0, 30 UMOL (TOTAL DOSE) 1/6 INJECTED UNDER EACH OF 3 THORACIC AND 3 INGUINAL NIPPLES ONCE (STUDY DURATION: 44 WK)
  carcinogen call: inactive; negative

## C=CC(O)c1ccc(OC)cc1 (stereo not given)
Species: MOUSE, Strain/Sex: CD-1/MALE, Route: SUBCUTANEOUS, Dose: 0, 0.17 UMOL IN 0.025 ML TRIOCTANOIN WITHIN 24 H AFTER BIRTH THEN 0, 0.47 UMOL IN 0.05 ML TRIOCTANOIN ON D 8, 0, 0.95 UM, Dose: 0, 0.17 UMOL IN 0.025 ML TRIOCTANOIN WITHIN 24 H AFTER BIRTH THEN 0, 0.47 UMOL IN 0.05 ML TRIOCTANOIN ON D 8, 0, 0.95 µM, Tumor Site: Type of Lesion: LIVER: HEPATOCELLULAR CARCINOMA
  carcinogen call: active; positive
